According to PubChem BioAssay (NCI):
Values joined by “and” are separate entries in the source; they are usually repeats but may differ in a detail not shown here. Equal values may be shown once.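 Grown in 96-well plates, cells were treated for 48 hours with each compound at five concentrations. Insufficient inhibition: endpoint recorded as highest concentration tested. GI50: concentration for 50% inhibition of growth. Definition used: TGI = concentration required for complete inhibition of growth.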

How the values were obtained:
Assay in all cases: NCI-60 cell line screen, 48 h
[1] = tested on: A549 NSCLC
[2] = tested on: COLO 205 colon
[3] = tested on: HCT-15 colon
[4] = tested on: KM12 colon
[5] = tested on: MCF7 breast
[6] = tested on: MDA-MB-435
[7] = tested on: RPMI-8226 leukemia
[8] = tested on: RXF 393 renal
[9] = tested on: SK-OV-3 ovarian
[10] = tested on: UO-31 renal

SMILES	GI50 [1]	TGI [1]	GI50 [2] [nM]	TGI [2]	GI50 [3] [nM]	TGI [3]	GI50 [4] [nM]	TGI [4]	GI50 [5] [nM]	TGI [5]	GI50 [6] [nM]	TGI [6]	GI50 [7] [nM]	TGI [7]	GI50 [8] [nM]	TGI [8] [µM]	GI50 [9] [nM]	TGI [9]	GI50 [10]	TGI [10]
Cc1ccc(OCCOCCOCCOCCOc2ccc(C)n(O)c2=S)c(=S)n1O	44.9 nM	> 100 µM	48.4	> 100 µM	< 10.4	> 100 µM	81.8	> 100 µM	< 10	43.6 µM	366	> 100 µM	26.7	> 64 µM	1550	22.3	75.3	> 100 µM	17.7 nM	4.14 µM
COc1ccc(/C(C)=C(\c2ccc(OCCN3CCCCCC3)cc2)c2ccc(OC(=O)C3CCCCC3)cc2)cc1	1120 nM	4.04 µM	626	4.06 µM	378	1.41 µM	854	3.27 µM	15	2.88 µM	1570	3.38 µM	550	2.23 µM	704	2.6	1700	3.96 µM	453 nM	2.22 µM
CO[C@H]1Nc2c(ccc(C)c2O)C(=O)N2C=C(/C=C/C(N)=O)C[C@@H]12		> 72.3 µM		0.1 µM		0.758 µM		7.2 µM		8.05 µM		0.0293 µM		8.51 µM		0.233		3.72 µM		0.0451 µM
CC(C)[C@H](O)C(=O)N[C@@H](C)C(=O)N[C@@H]1C(=O)N(C)CCc2ccccc21	> 100000 nM	> 100 µM	> 100000	> 100 µM	> 100000	> 100 µM	> 100000	> 100 µM	> 100000	> 100 µM	> 100000	> 100 µM	> 100000	> 100 µM	> 100000	> 100	> 100000	> 100 µM	> 100000 nM	> 100 µM
O=C1CCCN1c1ccccc1I(=O)=O	> 100000 nM	> 100 µM	> 100000	> 100 µM	> 100000	> 100 µM	> 100000	> 100 µM	> 100000	> 100 µM	> 100000	> 100 µM	> 100000	> 100 µM	> 100000	> 100	> 100000	> 100 µM	> 100000 nM	> 100 µM
OC(c1cc(-c2ccc(C(F)(F)F)cc2)nc(C(F)(F)F)c1)C1CCCCN1 (configuration not stated)	1840 nM and 2050 nM	3.4 µM and 4.92 µM		3.42 µM and 3.15 µM	1700	3.12 µM and 4.7 µM		3.13 µM and 3.35 µM	1610	3.08 µM and 3.42 µM	1670	3.05 µM and 3.42 µM	418	2.04 µM and 5.07 µM		3.15		4.75 µM and 5.99 µM	1440 nM and 4960 nM	2.85 µM and 18.3 µM
CC(C)(C)[Si](C)(C)OC1[C@@H](CNC(=O)NC(=O)CCl)O[C@@H](n2cnc3c(N)ncnc32)[C@H]1O[Si](C)(C)C(C)(C)C (some centres not stated)	2100 nM	7.72 µM	1450	3.55 µM	832	1.67 µM	897	1.98 µM	724	1.51 µM	798	1.56 µM	805	2.34 µM	859	1.58	1050	2.01 µM	436 nM	1.13 µM
CCCC(=O)C1=C(O)C(Cc2c(O)c(C)c(O)c(C(=O)CCC)c2O)=C(O)C(C)(C)C1=O		> 50 µM		> 50 µM		> 50 µM		> 50 µM		> 50 µM		> 50 µM		> 50 µM		> 50		> 50 µM		> 50 µM
c1ccc2c(c1)[nH]c1c2cc[n+]2cc3c(cc12)CCCC3	4880 nM	24.6 µM and 30.8 µM	1900	5.45 µM and 3.56 µM	23300	> 100 µM and 23.2 µM	2300	9.85 µM and 6.53 µM		10.9 µM and 11 µM		6.34 µM and 7.54 µM	2160	6.28 µM and 3.73 µM	2980	12.5		14.2 µM and 14.4 µM	14400 nM	30.7 µM and 33 µM
COc1ccc(-c2nc(-c3cc(OC)cc(OC)c3)[nH]c2-c2ccc(OC)cc2)cc1	5310 nM	> 100 µM	3680	> 100 µM	5040	> 100 µM	6200	> 100 µM	3770	> 100 µM	5980	> 100 µM	2490	6.96 µM	> 100000	> 100	> 100000	> 100 µM	5720 nM	> 100 µM
O=C(NCc1ccc(Cn2c(=O)sn(-c3ccccc3)c2=O)cc1)OCc1ccc2cccc(O)c2n1	1510 nM	3.87 µM	608	2.29 µM	298	0.969 µM	1540	3.02 µM	331	2.12 µM	709	2.03 µM	370	4.97 µM	457	1.71	5960	18.7 µM	571 nM	1.92 µM
CCNC(=O)/C(=C/c1ccc(OC)cc1)c1cc(OC)c(OC)c(OC)c1		> 100 µM		24.8 µM		> 100 µM		> 100 µM		> 100 µM		> 20.5 µM		> 100 µM		11.2		> 100 µM		> 100 µM
ClC(Cl)=C1C(=C(Cl)Cl)C(Cl)(Cl)C1(Cl)Cl		25.7 µM		10.8 µM		3.56 µM		18.4 µM		19.2 µM		14 µM		3.69 µM		3.26		28.8 µM		9.07 µM
Nc1cc2c(cc1Br)[nH]c(=O)c1ccccc12	2910 nM	11.4 µM	3340		4790	20.8 µM	3400	11.2 µM	1830	11.4 µM	1910	3.57 µM	5190	42.3 µM	4300	21.7	10100	54.1 µM	2730 nM	18.5 µM
COC(=O)C1C(O)C(C(=O)OC)C(C)N(C)C1C (configuration not stated)		> 100 µM		> 100 µM		> 100 µM		> 100 µM		> 100 µM		> 100 µM		> 100 µM		> 100		> 100 µM		> 100 µM
O=C(Nc1cc(Cl)ccc1O)c1ccc(Nc2ccnc(C(F)(F)F)c2)cc1	3970 nM	> 100 µM	1860	4.23 µM	2860	> 100 µM	3190	18.8 µM	2680	> 100 µM	2950	9.53 µM	1250	3.83 µM	5710	> 100	2320	7.11 µM	1930 nM	6.13 µM
O=C(Nc1cc(Nc2ncccc2-c2ncnc3nc[nH]c23)ccc1F)c1cc(C(F)(F)F)cc(C(F)(F)F)c1	3050 nM	> 10 µM	390	2.2 µM	2120	5.67 µM	1530	4.03 µM	2650	> 10 µM	996	> 10 µM	2120	6.4 µM	1910	4.62	2780	9.19 µM	319 nM	1.99 µM
COc1ccc(-c2nccn2-c2ccc(OC)cc2)cc1	25100 nM	> 80.5 µM	28300	> 100 µM	23100	> 67.2 µM	17900	65.3 µM	24400	> 66.1 µM	7530	35.1 µM	13400	36.6 µM	17900	> 80.5	22800	93.6 µM	23300 nM	> 82 µM
CC(C)c1[nH]nc2c1N=C(c1ccccc1Cl)c1cc([N+](=O)[O-])ccc1N2	5180 nM	> 22.3 µM	10300	> 25 µM	3860	> 25 µM	1790	6.31 µM	4530	24.3 µM	870	> 25 µM	8850	> 22.6 µM	3640	8.45	10100	> 25 µM	5460 nM	> 18.5 µM
Cc1cc(N/N=C/c2ccccn2)nc2ccccc12	361 nM	12.3 µM	367	12.4 µM	336	16.3 µM	508	14.9 µM	316	8.94 µM	679	15.9 µM	410	12.5 µM	321	4.87	668	16 µM	286 nM	2.29 µM
COc1ccc(-c2cnnn2-c2nonc2-n2cccc2)cc1	450 nM	> 44.8 µM	235	0.787 µM	311	> 100 µM	160	8.53 µM	277	60.3 µM	32.5	0.173 µM	353	5.02 µM	138	0.609	319	4.28 µM	298 nM	37.6 µM
O=C(c1ccco1)c1c(C(F)(F)F)n([O-])c2ccc(C(F)(F)F)cc2[n+]1=O	254 nM	0.7 µM	468	0.987 µM	291	0.749 µM	467	0.973 µM	307	0.872 µM	1160	2.56 µM	383	1.68 µM	179	0.512	1120	2.48 µM	205 nM	0.439 µM
CCCC/C(=C\C1=C(C)C(=O)C(OC)=C(OC)C1=O)C(=O)O	> 100000 nM	> 100 µM	> 100000	> 100 µM	> 100000	> 100 µM	> 100000	> 100 µM	> 100000	> 100 µM	> 100000	> 100 µM	> 100000	> 100 µM	> 100000	> 100	> 100000	> 100 µM	> 100000 nM	> 100 µM
NNCCc1ccc(NC(=O)CCCc2ccc(C(=O)Nc3ccccc3N)cc2)cc1	31900 nM	> 100 µM	8480	40.7 µM	45600	> 100 µM	29100	> 100 µM	6840	> 100 µM	9710	> 100 µM	3180	> 100 µM	12600	53.9	18200	> 100 µM	4800 nM	53.6 µM
CCCCCCCCCCNC(=O)CI	5440 nM	21.9 µM	2380	6.01 µM	1500	3.31 µM	2130	4.29 µM	1970	4.59 µM	1970	4.51 µM	2210	5.02 µM	1740	3.53	1890	3.38 µM	1580 nM	3.04 µM
CC1(C)CN=C(NN=C(/C=C/c2ccc(C(F)(F)F)cc2)/C=C/c2ccc(C(F)(F)F)cc2)NC1	1360 nM	2.91 µM	1350	2.85 µM	989	2.45 µM	1210	2.45 µM	1400	2.92 µM	1590	3 µM	466	2.3 µM	1330	2.73	1770	3.16 µM	1520 nM	2.94 µM
O=C(/C=C/c1ccccc1)c1ccccc1		> 10 µM		> 10 µM		> 10 µM		> 10 µM		> 10 µM		> 10 µM		> 7.63 µM		> 10		> 10 µM		> 10 µM
